Measured values reported in US12624023B2, “Sulfonylurea derivatives and uses thereof” (NodThera Limited, priority 2019, dated 2026).

What was measured:
[1] = test system: IL-1β release upon NLRP3 activation in peripheral blood mononuclear cells (PBMC); test: PBMC IC50 determination assay (IL-1β release, LPS priming + ATP stimulation, HTRF); format: cell-based; conditions: PBMC from buffy coats; LPS 1 μg/ml 3 h, compound 30 min, ATP 5 mM 1 h; IL-1β by HTRF
Experimental: The compounds of the present disclosure were tested for their inhibitory activity against IL-1β release upon NLRP3 activation in peripheral blood mononuclear cells (PBMC).
PBMC were isolated from buffy coats by density gradient centrifugation on Histopaque-1077 (Sigma, cat no. 10771). Isolated cells were seeded into the wells (280,000 cells/well) of a 96-well plate and incubated for 3 h with lipopolysaccharide (LPS, 1 μg/ml diluted 1000× from a 1 mg/ml stock solution). The compounds of the present disclosure were added (a single compound per well) and the cells were incubated for 30 min. Next, the cells were stimulated with ATP (5 mM final concentration diluted 20× from a 100 mM stock solution) for 1 h and the cell culture media from the wells were collected for further analysis.
(§1) The release of IL-1β into the media was determined by quantitative detection of IL-1β in the media using HTRF®, CisBio cat. No. 62HIL1BPEH. Briefly, cell culture supernatant were dispensed directly into the assay plate containing antibodies labelled with the HTRF® donor and acceptor. A microplate spectrophotometer (BMG) was used to detect signals at 655 nm and 620 nm. The detection range of IL-1β HTRF® was 39-6500 μg/ml.

[2] = test system: IL-1β release upon NLRP3 activation in human whole blood; test: Whole blood (WB) assay (IL-1β release, LPS priming + ATP stimulation, HTRF); format: cell-based; conditions: heparin, diluted 9:5 with media, LPS 1 μg/ml 3 h, compound 30 min, ATP 5 mM 1 h, IL-1β by HTRF
Experimental: The compounds of the present disclosure were tested for their inhibitory activity against IL-1β release upon NLRP3 activation in human whole blood.
Whole blood was drawn from single healthy donors and treated with sodium heparin anticoagulant. Blood was diluted with cell culture media at a 9:5 ratio, seeded in a 96-well plate and incubated for 3 h with lipopolysaccharide (LPS, 1 μg/ml final concentration diluted 1000× from a 1 mg/ml stock solution). The compounds of the present disclosure were added (a single compound concentration per well) and the blood was incubated for 30 min. Next, the blood was stimulated with ATP (5 mM final concentration diluted 20× from a 100 mM stock solution) for 1 h and the cell culture media from the wells were collected for further analysis.
as §1, with “were diluted as appropriate to bring IL-1β levels within the HTRF® detection range ([…]) and subsequently” for “were”, “dispensed” for “dispensed directly”, “nm.” for “nm. The detection range of IL-1β HTRF® was 39-6500 μg/ml.”

CC(C)c1csc(C(C)C)c1NC(=O)NS(=O)(=O)N(c1cnn(C)c1)C1CCCN(C)C1 (centres unmarked) [Compound 16, 3-[2,4-Bis(propan-2-yl)thiophen-3-yl]-1-[(1-methyl-1H-pyrazol-4-yl)(1-methyl-piperidin-3-yl)sulfamoyl]urea]
IC50 [1]: 100 to 500 nM
IC50 [2]: 1000 to 3000 nM

Cc1sc2c(c1NC(=O)NS(=O)(=O)N(c1cnn(C3CC3)c1F)C1CCCN(C)C1)CCC2 (centres unmarked) [Compound 113, 1-[(1-Cyclopropyl-5-fluoro-1H-pyrazol-4-yl)(1-methylpiperidin-3-yl)sulfamoyl]-3-{2-methyl-4H,5H,6H-cyclopenta[b]thiophen-3-yl}urea]
IC50 [1]: < 100 nM
IC50 [2]: < 1000 nM

CC(C)c1cc(NC(=O)NS(=O)(=O)N(c2cnn(C)c2)[C@@H]2C[C@@H](F)CN(C)C2)c(C(C)C)s1 [Compound 82, 3-[2,5-Bis(propan-2-yl)thiophen-3-yl]-1-{[(3R,5R)-5-fluoro-1-methylpiperidin-3-yl](1-methyl-1H-pyrazol-4-yl)sulfamoyl}urea]
IC50 [1]: < 100 nM
IC50 [2]: 1000 to 3000 nM

Cc1cc(NC(=O)NS(=O)(=O)N(c2cnn(C)c2)[C@@H]2CCN(C)C2)c(C(C)C)s1 [Compound 130, 1-[(1-Methyl-1H-pyrazol-4-yl)[(3R)-1-methylpyrrolidin-3-yl]sulfamoyl]-3-[5-methyl-2-(propan-2-yl)thiophen-3-yl]urea]
IC50 [1]: < 100 nM
IC50 [2]: < 1000 nM

Cc1sc2c(c1NC(=O)NS(=O)(=O)N(c1cnn(C)c1)[C@H]1CCCN(C)C1)CCC2 [Compound 116, 1-[(1-Methyl-1H-pyrazol-4-yl)[(3S)-1-methylpiperidin-3-yl]sulfamoyl]-3-{2-methyl-4H,5H,6H-cyclopenta[b]thiophen-3-yl}urea]
IC50 [1]: < 100 nM
IC50 [2]: < 1000 nM

CC(C)c1cc(NC(=O)NS(=O)(=O)N(c2cnn(C)c2)C2CN(C)CC(F)(F)C2)c(C(C)C)s1 (centres unmarked) [Compound 93, 3-[2,5-Bis(propan-2-yl)thiophen-3-yl]-1-[(5,5-difluoro-1-methylpiperidin-3-yl)(1-methyl-1H-pyrazol-4-yl)sulfamoyl]urea]
IC50 [1]: 100 to 500 nM
IC50 [2]: 3000 to 10000 nM

Cc1cc(NC(=O)NS(=O)(=O)N(c2cnn(C)c2F)C2CCN(C)CC2)c(C(C)C)s1 [Compound 101, 1-[(5-Fluoro-1-methyl-1H-pyrazol-4-yl)(1-methylpiperidin-4-yl)sulfamoyl]-3-[5-methyl-2-(propan-2-yl)thiophen-3-yl]urea]
IC50 [1]: < 100 nM
IC50 [2]: < 1000 nM

CC(C)c1cc(NC(=O)NS(=O)(=O)N(CCN(C)C)c2cnn(C)c2)c(C(C)C)s1 [Compound 18, 3-[2,5-Bis(propan-2-yl)thiophen-3-yl]-1-{[2-(dimethylamino)ethyl](1-methyl-1H-pyrazol-4-yl)sulfamoyl}urea]
IC50 [1]: 100 to 500 nM
IC50 [2]: 1000 to 3000 nM

Cc1cc(NC(=O)NS(=O)(=O)N(c2cnn(C)c2)[C@@H]2CCCN(C)C2)c(C(C)C)s1 [Compound 66, 1-[(1-Methyl-1H-pyrazol-4-yl)[(3R)-1-methylpiperidin-3-yl]sulfamoyl]-3-[5-methyl-2-(propan-2-yl)thiophen-3-yl]urea]
IC50 [1]: < 100 nM
IC50 [2]: < 1000 nM

CC(C)c1sc(C#N)cc1NC(=O)NS(=O)(=O)N(c1cnn(C)c1)C1CCCN(C)C1 (centres unmarked) [Compound 131, 3-[5-Cyano-2-(propan-2-yl)thiophen-3-yl]-1-[(1-methyl-1H-pyrazol-4-yl)(1-methylpiperidin-3-yl)sulfamoyl]urea]
IC50 [1]: 500 to 1000 nM
IC50 [2]: 3000 to 10000 nM

Cc1csc(C)c1NC(=O)NS(=O)(=O)N(c1cnn(C)c1)C1CCOCC1 [Compound 1, 3-(2,4-Dimethylthiophen-3-yl)-1-[(1-methyl-1H-pyrazol-4-yl)(oxan-4-yl)-sulfamoyl]urea]
IC50 [1]: 1000 to 5000 nM
IC50 [2]: 3000 to 10000 nM

Cc1cc(NC(=O)NS(=O)(=O)N(c2cnn(C)c2)[C@H]2CCCN(C)C2)c(C2CC2)s1 [Compound 107, 3-(2-Cyclopropyl-5-methylthiophen-3-yl)-1-[(1-methyl-1H-pyrazol-4-yl)[(3S)-1-methylpiperidin-3-yl]sulfamoyl]urea]
IC50 [1]: 100 to 500 nM
IC50 [2]: 1000 to 3000 nM

CCc1cc(CC)c(NC(=O)NS(=O)(=O)N(c2cnn(C)c2)C2CCCN(C)C2)s1 (centres unmarked) [Compound 29, 3-(3,5-Diethylthiophen-2-yl)-1-[(1-methyl-1H-pyrazol-4-yl)(1-methylpiperidin-3-yl)sulfamoyl]urea]
IC50 [1]: 100 to 500 nM
IC50 [2]: 1000 to 3000 nM

CC(C)c1cc(NC(=O)NS(=O)(=O)N(c2cnn(C(C)C)c2)[C@H]2CCCN(C)C2)c(C(C)C)s1 [Compound 84, 3-[2,5-Bis(propan-2-yl)thiophen-3-yl]-1-{[(3S)-1-methylpiperidin-3-yl][1-(propan-2-yl)-1H-pyrazol-4-yl]sulfamoyl}urea]
IC50 [1]: < 100 nM
IC50 [2]: < 1000 nM

CC(C)c1sc(C2CC2)cc1NC(=O)NS(=O)(=O)N(c1cnn(C)c1)C1CCCN(C)C1 (centres unmarked) [Compound 37, 3-[5-Cyclopropyl-2-(propan-2-yl)thiophen-3-yl]-1-[(1-methyl-1H-pyrazol-4-yl)(1-methylpiperidin-3-yl)sulfamoyl]urea]
IC50 [1]: < 100 nM
IC50 [2]: 1000 to 3000 nM

Cc1sc(C(C)C)cc1NC(=O)NS(=O)(=O)N(c1cnn(C)c1)[C@H]1CCCN(C)C1 [Compound 90, 1-[(1-Methyl-1H-pyrazol-4-yl)[(3S)-1-methylpiperidin-3-yl]sulfamoyl]-3-[2-methyl-5-(propan-2-yl)thiophen-3-yl]urea]
IC50 [1]: 100 to 500 nM
IC50 [2]: 1000 to 3000 nM

CCc1cc(NC(=O)NS(=O)(=O)N(c2cnn(C(C)C)c2)[C@H]2CCCN(C)C2)c(CC)o1 [Compound 87, 3-(2,5-Diethylfuran-3-yl)-1-{[(3S)-1-methylpiperidin-3-yl][1-(propan-2-yl)-1H-pyrazol-4-yl]sulfamoyl}urea]
IC50 [1]: 100 to 500 nM
IC50 [2]: 1000 to 3000 nM

Cc1sc2c(c1NC(=O)NS(=O)(=O)N(c1cnn(C)c1F)C1CCCN(C)C1)CCC2 (centres unmarked) [Compound 119, 1-[(5-Fluoro-1-methyl-1H-pyrazol-4-yl)(1-methylpiperidin-3-yl)sulfamoyl]-3-{2-methyl-4H,5H,6H-cyclopenta[b]thiophen-3-yl}urea]
IC50 [1]: < 100 nM
IC50 [2]: < 1000 nM

CC(C)c1cc(NC(=O)NS(=O)(=O)N(c2cnn(C3CC3)c2)[C@@H]2CCCN(C)C2)c(C(C)C)s1 [Compound 59, 3-[2,5-Bis(propan-2-yl)thiophen-3-yl]-1-[(1-cyclopropyl-1H-pyrazol-4-yl)-[(3R)-1-methylpiperidin-3-yl]sulfamoyl]urea]
IC50 [1]: < 100 nM
IC50 [2]: 1000 to 3000 nM

Cc1sc(C(C)C)cc1NC(=O)NS(=O)(=O)N(c1cnn(C)c1)[C@@H]1CCCN(C)C1 [Compound 57, 1-[(1-Methyl-1H-pyrazol-4-yl)[(3R)-1-methylpiperidin-3-yl]sulfamoyl]-3-[2-methyl-5-(propan-2-yl)thiophen-3-yl]urea]
IC50 [1]: 100 to 500 nM
IC50 [2]: 1000 to 3000 nM

CCc1cc(NC(=O)NS(=O)(=O)N(CCN(C)C)c2cnn(C(C)C)c2)c(CC)o1 [Compound 64, 3-(2,5-Diethylfuran-3-yl)-1-{[2-(dimethylamino)ethyl][1-(propan-2-yl)-1H-pyrazol-4-yl]sulfamoyl}urea]
IC50 [1]: 1000 to 5000 nM
IC50 [2]: 10000 to 20000 nM

CCc1cc(NC(=O)NS(=O)(=O)N(c2cnn(C(C)C)c2)[C@@H]2CCCN(C)C2)c(CC)o1 [Compound 71, 3-(2,5-Diethylfuran-3-yl)-1-{[(3R)-1-methylpiperidin-3-yl][1-(propan-2-yl)-1H-pyrazol-4-yl]sulfamoyl}urea]
IC50 [1]: 100 to 500 nM
IC50 [2]: 1000 to 3000 nM

CC(C)c1cc(C(C)C)c(NC(=O)NS(=O)(=O)N(c2cnn(C)c2)C2CCCN(C)C2)s1 (centres unmarked) [Compound 52, 3-[3,5-Bis(propan-2-yl)thiophen-2-yl]-1-[(1-methyl-1H-pyrazol-4-yl)(1-methyl-piperidin-3-yl)sulfamoyl]urea]
IC50 [1]: < 100 nM
IC50 [2]: 1000 to 3000 nM

Cc1sc2ccccc2c1NC(=O)NS(=O)(=O)N(c1cnn(C)c1)C1CCOCC1 [Compound 3, 3-(2-Methyl-1-benzothiophen-3-yl)-1-[(1-methyl-1H-pyrazol-4-yl)(oxan-4-yl)sulfamoyl]urea]
IC50 [1]: 1000 to 5000 nM
IC50 [2]: > 20000 nM

CC(C)c1sc(Cl)cc1NC(=O)NS(=O)(=O)N(c1cnn(C)c1)[C@H]1CCCN(C)C1 [Compound 80, 3-[5-Chloro-2-(propan-2-yl)thiophen-3-yl]-1-[(1-methyl-1H-pyrazol-4-yl)[(3S)-1-methylpiperidin-3-yl]sulfamoyl]urea]
IC50 [1]: < 100 nM
IC50 [2]: < 1000 nM
